Experimental data reported in PMC9655874, “Analysis of Volatile Secondary Metabolites in Ocimum basilicum Cell Suspensions: Inhibition, In Silico Molecular Docking, and an ADMET Analysis against Proteolytic Enzymes of Rhynchophorus ferrugineus” (Plants, 2022).
Values after ≈ are worked out from the molar mass of the structure shown. Values joined by “and” are separate entries in the source; they are usually repeats but may differ in a detail not shown here. Equal values may be shown once.

Legend:
[1] = system: total proteases of R. ferrugineus midgut; experiment: Total protease activity in midgut of treated larvae (in vivo); conditions: larvae treated 24 h, midgut preparation
Method: (§4) The homogenate of R. ferrugineus 4th midgut instar larvae (lab strain) was assayed for total proteolytic enzyme activity using azocasein, as Darrag et al. [26], with modifications. Ten 4th midgut larval homogenates were carefully removed, incised, and then rinsed in a solution containing 0.9% NaCl before even being homogenized in a buffer (500 µL) containing 5 mM dithiothreitol (DTT), 0.1% (v/v) Triton X-100, and 50 mM N-2-hydroxyethyl piperazine-N′-2-ethane sulphonic acid (HEPS), and 8.0 pH. It was spun in a centrifuge (Sigma 3k30), and the remaining homogenates were from a preliminary phase for 30 min at 5000 rpm. Using the supernatants, the protein concentration and proteolytic enzyme activity were determined. […] Before each reaction experiment, 40-day-old methanolic extract of cell suspension, pure chemicals, and 10 μL of enzyme specimens were incubated for 10 min. The addition of the substrate initiated the reaction, which was allowed for 20 min in the case of leupeptin before being terminated 180 min later by adding 300 µL of cold tri-chloroacetic acid (TCA) (10%, v/v). Twenty minutes were spent centrifuging the mixture at 5000 rpm (Sigma 3k30). Overall, 10 µL of NaOH (10 N) was added to the supernatant, and the absorbance was measured using an ELISA plate reader at 450 nm to quantify the enzymes’ specific activity as OD450/mg protein/h.
(§5) An experiment that was set up free of potential inhibitors served as a control. An ELISA plate fast reader measured the enzymes’ absorption at various wavelengths. For each inhibitor, the control enzyme’s percentage activity was assessed for each enzyme. Four instars midgut larvae were treated with previous concentrations of extracts or compounds, assessed as previously mentioned, to measure the protease activity in vivo. Larvae were subjected to extract- and compound-treated leaf discs for 24 h.

[2] = biological target: metalloprotease of R. ferrugineus midgut; experiment: Metalloproteinase specific activity, CEGR substrate (in vitro); conditions: 4th instar midgut homogenate
Method: (§6) The ten midgut larvae from the fourth stage were neatly eliminated, dissected, and repeatedly washed with 0.9% NaCl solution. A 500 µL protease test solution, including 50 mM HEPS, 0.1% Triton X-100, and 5 mM DTT (pH 8.0), was utilized to homogenize the midgut instar. The homogenates were then centrifuged employing a Sigma 3k30 (cooling centrifuge) at 5000 rpm for 30 min to evaluate the supernatant’s enzyme activity and protein content. Before introducing CEGR (125 µL, 2% (w/v)), each experiment’s supernatant (10 µL) was incubated in an assay buffer (60 µL) at 37 °C for 20 min (pH 8). During a 10 min incubation period without a substrate, 10 µL enzyme samples were tested (20 min. for EDTA, EGTA, 1.10, Phenanthroline). After 180 min at 37 °C, 300 µL of cold TCA, 10% (v/v), was used to terminate the reaction. For the next 20 min, the mixture was spun (5000 rpm, Sigma 3K30). The absorbance was measured at 450 nm after mixing the supernatant with hydroxide solution (10 µL, 10 N) using an ELISA reader. An enzyme-free assay combination was utilized as a blank, and particular activity was evaluated utilizing the OD493 mg^−1 protein min^−1 and an enzyme-free blank specimen.
as §5

[3] = system: metalloprotease of R. ferrugineus midgut; experiment: Metalloprotease activity in midgut of treated larvae (in vivo); conditions: larvae treated 24 h, midgut preparation
Method: as §6, §5

[4] = biological target: trypsin proteinase of R. ferrugineus midgut; experiment: Serine proteinase specific activity, trypsin (in vitro); conditions: 4th instar midgut homogenate
Method: (§7) We used a serine protease assay buffer and a modified version of the fast microplate method to analyze the serine proteinase’s specific activity in mixtures (150 µL) [26]. […] The sample (10 µL) was diluted using an assay buffer to 50 µL to determine the presence of trypsin proteinase, chymotrypsin proteinase, and elastase. Assay buffer was used to dilute stock substrates of BAρNA (100 mg/mL DMSO), both SAAPFρNA and SAAPLρNA (100 mg/mL DMF), to 1.0 mg/mL. To halt the reaction after 15 min of incubation at 37 °C, 50 µL of acetic acid (30%, v/v) was added. The intensity of the activity was measured using a 405 nm ELISA plate reader. A denaturation enzyme was used in place of an active enzyme in the experiment mixture. For three substrates (SAAPLρNA, BAρNA, and SAAPFρNA), activity levels of certain proteinases were assessed as OD mg^−1 protein min^−1.
as §5

[5] = biological target: elastase of R. ferrugineus midgut; experiment: Serine proteinase specific activity, elastase (in vitro); format: biochemical, Rhynchophorus ferrugineus; conditions: 4th instar midgut homogenate
[6] = system: R. ferrugineus 4th larvae; experiment: Topical application (contact insecticide) to fourth instar larvae; format: in vivo, Rhynchophorus ferrugineus; conditions: for LD50 (µg/Larvae) 95% CF: 4th larvae, topical, 95% confidence limits in brackets; for LD50: larvae
Method: (§1) Cells were suspended in the methanolic extract at serially increasing concentrations for 40 days. To dilute the compounds, TritonX-100 (0.1%) was added to acetone after the chemicals were dissolved. Adults or larvae of R. ferrugineus were purchased. They were then cultured using long lengths of sugar cane stem. The extracts’ anti-larvae action was assessed by applying topically to larvae and keeping them at 4–5 °C for 5 min. Utilizing a manually controlled micro-applicator, each larva had extract injected into its dorsum in three separate 10 µL doses using a 50-ll micro-syringe from Hertfordshire, UK’s Burkard Manufacturing Co., Ltd. (MS-N50; Shizuoka, Japan’s Ito Corp.). Five larvae in a box with three replications were fed on portions of long sugarcane stem measuring 10 cm. […] The sugarcane stem’s ten-centimeter-long portions cut into equal longitudinal halves were used to measure the antifeedant activity against adults. Long sections of sugarcane stem with a surface area of approximately 32.2 cm^2 were dried in air at room temperature, assuming a dipping time of 10 s and an initial serial concentration of (10 mL). Each treated object remained in a plastic container. Each box included an additional pair (male and female). Each therapy was administered ten times. In total, 24-, 48-, 72-, and 96-h feeding observations were assessed.
(§2) Statistics and probit analysis were performed using SPSS 25.0, as mentioned by Finney. To sum up, all numerical predictions of toxicity variables and findings were presented as the mean ± SE. We regressed mortality and translated the resulting dosage to an LC50 value (µg/mL). […] Enzyme activity data were analyzed using an ANOVA. Means were separated using the SNK (Student–Newman–Keuls) test, and deviations at the p ˂ 0.05 level were considered noteworthy.

R. ferrugineus adults = experiment: whole plant or invertebrate; format: in vivo; conditions: Rhynchophorus ferrugineus, read-out: LC50 (µg/mL) 95% CF
Method: as §1, §2

[7] = biological target: total proteases of R. ferrugineus midgut; experiment: Total proteolytic enzyme activity of 4th instar midgut homogenate, azocasein (in vitro)
Method: as §4, §5

[8] = system: elastase of R. ferrugineus midgut; experiment: Elastase activity in midgut of treated larvae (in vivo); set-up: species or system Rhynchophorus ferrugineus; conditions: larvae treated 24 h, midgut preparation
[9] = system: gut proteases of R. ferrugineus fourth larval instar; experiment: Specific protease inhibitors against gut proteases of fourth larval instar (in vitro); format: biochemical, Rhynchophorus ferrugineus; conditions: Figure S2, in vitro
Method: As a starting point (blank), an assessment combination not containing enzymes was utilized. TLCK (trypsin proteinase inhibitor), PMSF (general serine proteinase inhibitor), EDTA (EDTA-metalloproteinase inhibitor), iodoacetic acid (an iodoacetic acid-cysteine proteinase inhibitor), TPCK (chymotrypsin-proteinase inhibitor), and Leupeptin (as general proteinase inhibitor) were added to the reactions. Homogenates of larval fourth-gut tissue were prepared using the same methodology described for the enzyme activity test. The inhibitory test was conducted via a microplate assay, as reported previously. A series of inhibitor levels were prepared to determine the greatest inhibition activity. Concentrations of 0.01, 0.05, 0.1, and 1.0 mM leupeptin; 0.005, 0.01, 0.05, 0.1, and 1 mM TLCK and TPCK; 0.1, 1.0, 10, 50, and 100 mM PMSF; and 0.01, 0.05, 0.1, 1, and 2 mM iodoacetic acid, 100 mM; 1,10 phenanthroline, EDTA, and EGTA concentrations of 0.1, 1, 10, 50, and 100 mM.

[10] = system: trypsin proteinase of R. ferrugineus midgut; experiment: Trypsin activity in midgut of treated larvae (in vivo); conditions: larvae treated 24 h, midgut preparation
Method: as §7, §5

[11] = system: cysteine protease of R. ferrugineus midgut; experiment: Cysteine protease activity in midgut of treated larvae (in vivo); set-up: species or system Rhynchophorus ferrugineus; conditions: larvae treated 24 h, midgut preparation
Method: (§3) Utilizing the substrate N-benzoyl-Phe-Val-Arg-p-nitroanilide hydrochloride and certain modifications, the cysteine proteinases of R. ferrugineus homogenate from the fourth midgut instar was tested for activity. Ten larvae of the fourth midgut were carefully taken out, dissected, and periodically washed with 0.9% (w/v) NaCl solution, assay buffer containing 50 mM HEPS, 5 mM DTT, and 0.1% Triton X-100 (v/v) (pH 8.0, 500 µL) was used to homogenize the samples. The homogenates were spun using a cooling Sigma 3k30 centrifuge for 30 min at 5000 rpm. […] Before introducing 100 µL of the substrate, 10 µL of the supernatant was incubated in assay buffer (60 µL, pH = 8) at 37 °C for 30 min. Enzyme samples in 10 µL were incubated for 10 min with iodoacetic acid before the addition of the substrate. […] The absorbance at 520 nm was measured after spinning the reaction for 6 min at 5000 rpm. The activity in the midgut was assayed at OD520.60 min^−1 mg^−1 of protein with an ELISA rapid reader.

[12] = biological target: cysteine protease of R. ferrugineus midgut; experiment: Cysteine proteinase activity (in vitro); format: biochemical, Rhynchophorus ferrugineus; conditions: 4th instar midgut homogenate
Method: as §3

SMILES | IC50 total proteases (in vivo) [1] | IC50 metalloprotease (in vitro) [2] | IC50 metalloprotease (in vivo) [3] | IC50 trypsin proteinase (in vitro) [4] | IC50 elastase (in vitro) [5] | LD50 (µg/Larvae) 95% CF [6] | LD50 [6] | LD50 ([6]; topical application) | LC50 (R. ferrugineus adults) | IC50 total proteases (in vitro) [7] | IC50 elastase (in vivo) [8] | Effect on extracted gut proteases of the fourth larval instar [9] | IC50 trypsin proteinase (in vivo) [10] | IC50 cysteine protease (in vivo) [11] | IC50 cysteine protease (in vitro) [12]
CC12CCC(CC1)C(C)(C)O2 [1,8-cineole] | 193.1 µg/mL (≈ 1250 µM) | 708.2 µg/mL (≈ 4590 µM) | 1297.2 µg/mL (≈ 8410 µM) | 271.2 µg/mL (≈ 1760 µM) | 119.4 µg/mL (≈ 774 µM) | 13.9 (12.8–14.7) µg/Larvae | 13.9 µg/larva | 13.9 µg/larva | 1430 µg/mL (≈ 9240 µM) | 91.5 µg/mL (≈ 593 µM) | 256.3 µg/mL (≈ 1660 µM) |  |  |  | 
c1cnc2c(c1)ccc1cccnc12 [1,10 phenanthroline] |  |  |  |  |  |  |  |  |  |  |  | significantly inhibited |  |  | 
C=C/C(C)=C/CC=C(C)C [(E)-β-ocimene] | 273.2 µg/mL (≈ 2010 µM) | 321.7 µg/mL (≈ 2360 µM) |  | 157.2 µg/mL (≈ 1150 µM) |  | 31.2 (27.4–32.8) µg/Larvae |  | 31.2 µg/larva | 3010 µg/mL (≈ 22100 µM) | 207.4 µg/mL (≈ 1520 µM) |  |  |  |  | 
O=C(O)CN(CCN(CC(=O)O)CC(=O)O)CC(=O)O [EDTA] |  |  |  |  |  |  |  |  |  |  |  | significantly inhibited |  |  | 
O=C(O)CN(CCOCCOCCN(CC(=O)O)CC(=O)O)CC(=O)O [EGTA] |  |  |  |  |  |  |  |  |  |  |  | significantly inhibited |  |  | 
Cc1ccc(S(=O)(=O)N[C@@H](CCCCN)C(=O)CCl)cc1 [TLCK] |  |  |  |  |  |  |  |  |  |  |  | significantly inhibited |  |  | 
Cc1ccc(S(=O)(=O)N[C@@H](Cc2ccccc2)C(=O)CCl)cc1 [TPCK] |  |  |  |  |  |  |  |  |  |  |  | significantly inhibited |  |  | 
C=CCc1ccc(OC)cc1 [estragole] | 314.8 µg/mL (≈ 2120 µM) | 627.8 µg/mL (≈ 4240 µM) | 1014.1 µg/mL (≈ 6840 µM) | 257.5 µg/mL (≈ 1740 µM) |  |  |  |  | 3590 µg/mL (≈ 24200 µM) | 254.7 µg/mL (≈ 1720 µM) |  |  | 628.7 µg/mL (≈ 4240 µM) |  | 
C=CCc1ccc(O)c(OC)c1 [eugenol] | 201.4 µg/mL (≈ 1230 µM) | 478.6 µg/mL (≈ 2910 µM) |  | 247.2 µg/mL (≈ 1510 µM) | 165.7 µg/mL (≈ 1010 µM) | 14.2 (13.1–15.4) µg/Larvae | 14.2 µg/larva | 14.2 µg/larva | 1460 µg/mL (≈ 8890 µM) | 97.6 µg/mL (≈ 594 µM) | 346.8 µg/mL (≈ 2110 µM) |  | 612.8 µg/mL (≈ 3730 µM) | 453.1 µg/mL (≈ 2760 µM) | 294.4 µg/mL (≈ 1790 µM)
C=C1/C=C/[C@H](C(C)C)CC/C(C)=C/CC1 [germacrene D] | 861.2 µg/mL (≈ 4210 µM) | 112.3 µg/mL (≈ 550 µM) | 574.6 µg/mL (≈ 2810 µM) | 144.2 µg/mL (≈ 706 µM) |  | 21.3 (19.7–22.5) µg/Larvae |  | 21.3 µg/larva | 2040 µg/mL (≈ 10000 µM) | 182.1 µg/mL (≈ 891 µM) |  |  |  |  | 
O=C(O)CI [iodoacetic acid] |  |  |  |  |  |  |  |  |  |  |  | significantly inhibited |  |  | 
C=CC(C)(O)CCC=C(C)C (centres unmarked) [linalool] | 192.7 µg/mL (≈ 1250 µM) | 278.2 µg/mL (≈ 1800 µM) |  | 63.4 µg/mL (≈ 411 µM) | 104.2 µg/mL (≈ 676 µM) | 13.7 (12.6–14.8) µg/Larvae | 13.7 µg/larva | 13.7 µg/larva | 1400 µg/mL (≈ 9060 µM) | 90.7 µg/mL (≈ 588 µM) | 217.2 µg/mL (≈ 1410 µM) |  | 137.5 µg/mL (≈ 891 µM) | 348.2 µg/mL (≈ 2260 µM) | 189.2 µg/mL (≈ 1230 µM)
CC(C)=CCC/C(C)=C\CO [nerol] | 248.6 µg/mL (≈ 1610 µM) | 106.7 µg/mL (≈ 692 µM) | 189.1 µg/mL (≈ 1230 µM) | 68.1 µg/mL (≈ 441 µM) |  | 15.6 (14.3–16.2) µg/Larvae | 15.6 µg/larva | 15.6 µg/larva | 1950 µg/mL (≈ 12600 µM) | 188.3 µg/mL (≈ 1220 µM) |  |  | 186.3 µg/mL (≈ 1210 µM) |  | 
C=C(C)C1CCC(C)C2=C(C1)C(C)CC2 (stereo not drawn) [α-guaiene] | 694.7 µg/mL (≈ 3400 µM) | 124.9 µg/mL (≈ 611 µM) | 594.7 µg/mL (≈ 2910 µM) | 66.8 µg/mL (≈ 327 µM) |  | 19.2 (17.8–20.7) µg/Larvae |  | 19.2 µg/larva | 1490 µg/mL (≈ 7300 µM) | 107.4 µg/mL (≈ 526 µM) |  |  | 454.4 µg/mL (≈ 2220 µM) | 642.3 µg/mL (≈ 3140 µM) | 238.5 µg/mL (≈ 1170 µM)
C=C1CCC2CC1C2(C)CCC=C(C)C (stereo not drawn) [β-bergamotene] | 598.3 µg/mL (≈ 2930 µM) | 134.8 µg/mL (≈ 660 µM) | 613.5 µg/mL (≈ 3000 µM) | 58.5 µg/mL (≈ 286 µM) |  | 17.2 (16.1–18.4) µg/Larvae |  | 17.2 µg/larva | 1290 µg/mL (≈ 6330 µM) | 78.9 µg/mL (≈ 386 µM) |  |  | 284.5 µg/mL (≈ 1390 µM) | 521.4 µg/mL (≈ 2550 µM) | 119.6 µg/mL (≈ 585 µM)
C=C1CC/C=C(\C)CC[C@@H]2[C@@H]1CC2(C)C [β-caryophyllene] | 748.2 µg/mL (≈ 3660 µM) | 314.5 µg/mL (≈ 1540 µM) |  | 70.4 µg/mL (≈ 344 µM) |  | 20.1 (18.7–21.4) µg/Larvae |  | 20.1 µg/larva | 1520 µg/mL (≈ 7450 µM) | 176.3 µg/mL (≈ 863 µM) |  |  | 489.3 µg/mL and 542.8 µg/mL | 586.3 µg/mL (≈ 2870 µM) | 204.4 µg/mL (≈ 1000 µM)
C=CC(=C)CCC=C(C)CCC=C(C)C [β-farnesene] | 675.2 µg/mL (≈ 3300 µM) | 101.5 µg/mL (≈ 497 µM) | 545.7 µg/mL (≈ 2670 µM) | 60.2 µg/mL (≈ 295 µM) |  | 18.4 (17.1–19.7) µg/Larvae |  | 18.4 µg/larva | 1360 µg/mL (≈ 6640 µM) | 88.6 µg/mL (≈ 434 µM) |  |  | 425.8 µg/mL (≈ 2080 µM) | 536.8 µg/mL (≈ 2630 µM) | 128.4 µg/mL (≈ 628 µM)
CC1=CCC(C(C)C)=CC1 [γ-terpinene] | 337.4 µg/mL (≈ 2480 µM) | 526.8 µg/mL (≈ 3870 µM) |  | 229.7 µg/mL (≈ 1690 µM) | 154.3 µg/mL (≈ 1130 µM) |  |  |  |  | 268.1 µg/mL (≈ 1970 µM) | 315.8 µg/mL (≈ 2320 µM) |  | 594.1 µg/mL (≈ 4360 µM) |  | 
